In PubChem BioAssay (NCI):
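Cultured in 96-well plates, cells were exposed to test compound for 48 hours across five concentrations. Here, GI50 denotes the concentration required for 50% inhibition of growth. The concentration for full growth arrest is given as TGI.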

How the values were obtained:
Assay in all cases: inhibition of tumour cell growth, NCI panel, 48 h
[1] = tested on: KM12 colon
[2] = tested on: TK-10 renal
[3] = tested on: DMS 273 small cell lung
[4] = tested on: HCT-116 colon
[5] = tested on: M14 melanoma
[6] = tested on: NCI/ADR-RES ovarian
[7] = tested on: COLO 205 colon
[8] = tested on: SNB-78 CNS
[9] = tested on: 786-0 renal
[10] = tested on: SNB-19 CNS
[11] = tested on: M19-MEL melanoma

| SMILES | TGI [1] | TGI [2] | TGI [3] | TGI [4] | TGI [5] | TGI [6] | TGI [7] | TGI [8] | TGI [9] | TGI [10] | TGI [11] | GI50 [1] | GI50 [2] | GI50 [4] | GI50 [5] | GI50 [7] | GI50 [8] | GI50 [9] | GI50 [10] | GI50 [6] |
| --- | --- | --- | --- | --- | --- | --- | --- | --- | --- | --- | --- | --- | --- | --- | --- | --- | --- | --- | --- | --- |
| CCN(CC)CCn1c2ccccc2c(=O)c2c(O)ccc(O)c21 | > 74.8 µM | 49.2 µM | > 100 µM | 58.6 µM | 63.6 µM | 44 µM | 45.1 µM | > 60.2 µM | 53.8 µM | > 74.8 µM |  |  |  |  |  |  |  |  |  |  |
| COC(=O)NN=C1C(C)(C)C(=O)C1(C)C | > 100 µM | > 100 µM | > 100 µM | > 100 µM | > 100 µM |  | > 100 µM | > 100 µM | > 100 µM |  |  |  |  |  |  |  |  |  |  |  |
| CN1CC[C@]2(C)c3cc(O)ccc3CC3CCCC1C32C (some centres not stated) | > 100 µM | > 100 µM |  | > 100 µM | > 100 µM |  | > 100 µM | > 100 µM | > 100 µM | > 100 µM | > 100 µM |  |  |  |  |  |  |  |  |  |
| O=C(O)CCC(NC(=O)c1ccccc1)C(=O)O (configuration not stated) | > 100 µM | > 100 µM | > 100 µM | > 100 µM | > 100 µM |  | > 100 µM | > 100 µM | > 100 µM | > 100 µM |  |  |  |  |  |  |  |  |  |  |
| Cn1ccc2c(C(=O)c3ccccc3)cccc2c1=O | > 100 µM | > 100 µM | > 100 µM | > 100 µM | > 100 µM |  | > 100 µM |  | > 100 µM |  | > 100 µM |  |  |  |  |  |  |  |  |  |
| O=C1CCCC(=O)N1CCc1c[nH]c2ccccc12 | > 100 µM | > 100 µM | > 100 µM | > 100 µM | > 100 µM |  |  | > 100 µM | > 100 µM | > 100 µM | > 100 µM |  |  |  |  |  |  |  |  |  |
| C[C@]12CCC(=O)C(O)=C1CC[C@@H]1C2CC[C@]2(C)Nc3c(cnn3-c3ccccc3)CC12 (some centres not stated) | > 100 µM | > 100 µM | > 100 µM | > 100 µM | > 100 µM |  |  | > 100 µM | > 100 µM |  | > 100 µM |  |  |  |  |  |  |  |  |  |
| Fc1ccccc1C1SCc2nc3ccccc3n21 (configuration not stated) | > 100 µM | > 100 µM | > 100 µM | > 100 µM |  |  | > 100 µM | > 100 µM | > 100 µM | > 100 µM | > 100 µM |  |  |  |  |  |  |  |  |  |
| O=C1C2C=CC(C2)C(c2ccc(O)cc2)N1O (configuration not stated) | > 100 µM | > 100 µM |  | > 100 µM | > 100 µM |  | > 100 µM | > 100 µM | > 100 µM | > 100 µM | > 100 µM |  |  |  |  |  |  |  |  |  |
| NCCN.NCCN.O=C([O-])CCl.O=C([O-])CCl.[Co+3].[O-][Cl+3]([O-])([O-])[O-] | > 100 µM | > 100 µM |  | > 100 µM | > 100 µM |  | > 100 µM | > 100 µM | > 100 µM | > 100 µM |  | > 100 µM | > 100 µM | > 100 µM | > 100 µM | > 100 µM | > 100 µM | > 100 µM | > 100 µM |  |
| O=c1nc(NC(c2ccccc2)(c2ccccc2)c2ccccc2)ccn1CCNCCn1ccc(NC(c2ccccc2)(c2ccccc2)c2ccccc2)nc1=O | 11.9 µM | 60.6 µM | 21.6 µM | 73 µM | 69.3 µM |  | 35.6 µM |  | 31.5 µM | 23.4 µM | 21 µM |  |  |  |  |  |  |  |  |  |
| Cc1ccc([N+](=O)[O-])cc1NC(=O)c1cccc([N+](=O)[O-])c1O | 87.2 µM | 93.8 µM | 76.4 µM |  | 56.7 µM |  | 32.2 µM | 80.7 µM | > 100 µM | > 100 µM | 56 µM |  |  |  |  |  |  |  |  |  |
| CC(=O)OCC(=O)[C@@]12OC(C)(C)O[C@@H]1C[C@H]1[C@@H]3CC=C4C[C@@H](O)CC[C@]4(C)[C@H]3CC[C@@]12C | > 100 µM | > 100 µM |  | > 100 µM | > 100 µM | > 100 µM | > 100 µM |  | > 100 µM | > 100 µM |  |  |  |  |  |  |  |  |  |  |
| CC(NCCC(=O)N(CCC(=O)N(CCC(=O)N(CCC(=O)N(CCC(=O)N(CCC(=O)N(CCC(=O)N(CCC(=O)N(CCC(=O)N(CCC(=O)O)[C@H](C)c1ccccc1)[C@H](C)c1ccccc1)[C@H](C)c1ccccc1)[C@H](C)c1ccccc1)[C@H](C)c1ccccc1)[C@H](C)c1ccccc1)[C@H](C)c1ccccc1)[C@H](C)c1ccccc1)[C@H](C)c1ccccc1)c1ccccc1 (some centres not stated) | 4.9 µM | 23.2 µM |  | > 19.9 µM | 5.49 µM | > 75 µM | 2.83 µM |  | > 75 µM | > 75 µM |  | 1.76 µM | 3.38 µM | 1.95 µM | 1.77 µM | 1.43 µM |  | 3.46 µM | > 19.1 µM | > 75 µM |
| CCC[CH2][Sn]([CH2]CCC)([CH2]CCC)[O]C(=O)c1ccc(Cl)cc1Cl | 0.283 µM | 0.267 µM |  | 0.262 µM | 0.29 µM | 0.378 µM | 0.375 µM |  | 0.259 µM | 0.359 µM |  | 0.139 µM | 0.132 µM | 0.127 µM | 0.147 µM | 0.183 µM |  | 0.13 µM | 0.179 µM | 0.177 µM |
| O=C1C2C(c3ccccc3)NC(c3ccccc3)C1C(c1ccccc1)NC2c1ccccc1 (configuration not stated) | > 100 µM | > 100 µM |  | > 100 µM | > 100 µM | > 100 µM | > 100 µM |  | > 100 µM | > 100 µM |  |  |  |  |  |  |  |  |  |  |
| Cc1[nH]c(=O)n2c(C)nnc2c1C(=O)Nc1cc(Cl)cc(Cl)c1 | > 100 µM | 52.1 µM |  | > 100 µM | > 100 µM |  | 79.4 µM | 69.6 µM | > 100 µM |  | 91.9 µM |  |  |  |  |  |  |  |  |  |
| C=C1C(=O)O[C@H]2[C@H](OC(C)=O)[C@@H](C)CCC/C(C)=C/CC[C@@]3(C)O[C@@H]3C[C@@H]12 | 18.8 µM | 5 µM |  | 6.83 µM | > 40.4 µM | 4 µM | 16.5 µM |  | 3.56 µM | 34 µM |  |  |  |  |  |  |  |  |  |  |
| C/C=C1/CCC2c3[nH]c4ccccc4c3CCN2C1 (configuration not stated) | > 100 µM | > 100 µM | > 100 µM | > 100 µM | 33.2 µM |  |  | > 100 µM | > 100 µM | > 100 µM | > 100 µM |  |  |  |  |  |  |  |  |  |
| O=C(Nc1ccc2[nH]c(=S)sc2c1)Nc1ccccc1F | > 100 µM | > 100 µM |  | > 100 µM | > 100 µM | > 100 µM | 65.4 µM |  | > 100 µM | > 100 µM |  | 24.7 µM | 51.5 µM | 37.7 µM | 42.4 µM | 24.5 µM |  | 51.6 µM | 41.8 µM | 21.9 µM |
